Data on nine molecules can be found in PubChem BioAssay (NCI).

Structures are written as SMILES. Where “and” joins values, the source holds several entries; their conditions need not be identical. Equal entries are not always repeated.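 Assay format: 96-well plates, 48-hour exposure. GI50 marks 50% less growth. TGI denotes the concentration required for complete inhibition of growth.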 Bounds are passed on as bounds.

Among the test systems are CAKI-1 renal; HCT-116 colon; LOX IMVI melanoma; NCI-H23 lung; SK-MEL-5 melanoma; SNB-75 CNS; T-47D breast; TK-10 renal; UACC-257 melanoma; UO-31 renal.
What all share (experiment): NCI tumour cell line growth inhibition, 48 h

`Nc1nc2c(c(=O)[nH]1)N=C(COP(=O)(O)OP(=O)(O)O)CN2`: the TGI in the experiment on CAKI-1 renal, with HCT-116 colon, with LOX IMVI melanoma, with NCI-H23 lung, in the experiment with SK-MEL-5 melanoma and in the experiment on SNB-75 CNS was over 100 µM each time. Further, the TGI in the experiment on T-47D breast, with TK-10 renal, in the experiment on UACC-257 melanoma and in the experiment with UO-31 renal was over 100 µM throughout.

In the case of `O=C1C=CC(=O)c2c1cc1ccccc1c2O`, the TGI worked out at 12.7 µM with CAKI-1 renal; 4.05 µM in the experiment with HCT-116 colon; 9.06 µM in the experiment with LOX IMVI melanoma; 27.6 µM in the experiment on NCI-H23 lung; 24.5 µM in the experiment with SK-MEL-5 melanoma; 33.2 µM with SNB-75 CNS. Further, the TGI with T-47D breast was found to be 3.49 µM; with TK-10 renal it was 11 µM; in the experiment on UACC-257 melanoma it was 7.91 µM; in the experiment with UO-31 renal, 9.11 µM.

For `COc1cccc(C(C#N)NC23CC4CC(CC(C4)C2)C3)c1` (stereo unspecified), the TGI with CAKI-1 renal, in the experiment with HCT-116 colon, with LOX IMVI melanoma, with NCI-H23 lung, in the experiment on SK-MEL-5 melanoma and with SNB-75 CNS was over 100 µM throughout. Besides, the TGI with T-47D breast, with TK-10 renal, in the experiment on UACC-257 melanoma and in the experiment on UO-31 renal was over 100 µM in each case.

For the molecule `NC(Cc1ccc(O)cc1)C(=O)N/N=C/c1ccc(N(CCCl)CCCl)cc1` (stereo unspecified), the GI50 with CAKI-1 renal is 1.83 µM; in the experiment with HCT-116 colon it was 21.8 µM; in the experiment on LOX IMVI melanoma, 5.73 µM; with NCI-H23 lung it was 12.3 µM; in the experiment with SK-MEL-5 melanoma, 19.5 µM; with SNB-75 CNS, 12.6 µM. For the same molecule, the GI50 with T-47D breast is 10.1 µM; with TK-10 renal, 25.2 µM; in the experiment on UACC-257 melanoma, 15.6 µM; in the experiment with UO-31 renal it was 3.95 µM. The TGI in the experiment on CAKI-1 renal is 18.4 µM; in the experiment with HCT-116 colon, over 100 µM; in the experiment on LOX IMVI melanoma, 68.4 µM; with NCI-H23 lung, over 100 µM; in the experiment on SK-MEL-5 melanoma, over 100 µM; in the experiment with SNB-75 CNS, over 100 µM. Further, the TGI in the experiment with T-47D breast was over 100 µM; in the experiment on TK-10 renal, over 100 µM; with UACC-257 melanoma it was 98.5 µM; in the experiment on UO-31 renal, 23.6 µM.

In the case of `[CH3][Sn]([CH3])([CH3])[O]C(=O)C(O)c1ccccc1` (stereo unspecified), the GI50 with CAKI-1 renal was 4.95 µM; in the experiment on HCT-116 colon it was 3.58 µM; in the experiment with LOX IMVI melanoma, 2.85 µM; in the experiment on NCI-H23 lung, 6.68 µM; in the experiment on SK-MEL-5 melanoma, 1.83 µM; with SNB-75 CNS it was 5.61 µM. The GI50 in the experiment on T-47D breast was 12.7 µM; in the experiment with TK-10 renal it was over 59.3 µM; with UACC-257 melanoma, 4.25 µM; with UO-31 renal, 4.16 µM. The TGI in the experiment on CAKI-1 renal was 34.5 µM; in the experiment on HCT-116 colon, 31.6 µM; with LOX IMVI melanoma, 8.53 µM; in the experiment with NCI-H23 lung, 61.8 µM; in the experiment with SK-MEL-5 melanoma it was 3.35 µM; with SNB-75 CNS, 54.3 µM. Moreover, the TGI in the experiment on T-47D breast is over 100 µM; in the experiment on TK-10 renal, over 100 µM; in the experiment on UACC-257 melanoma, over 41.7 µM; in the experiment with UO-31 renal it was 31.5 µM.

Take `COc1ccc(Oc2nc(Nc3ccc(N4CCOCC4)cc3)ncc2NC(=O)Nc2cc(OC)cc(OC)c2)cc1`: the GI50 in the experiment on CAKI-1 renal was 4.24 µM; in the experiment with HCT-116 colon, 1.14 µM; in the experiment on LOX IMVI melanoma, 3.59 µM; in the experiment with NCI-H23 lung, 2.69 µM; in the experiment with SK-MEL-5 melanoma it was 1.11 µM; with SNB-75 CNS, 1.65 µM. The GI50 in the experiment on T-47D breast was 5.13 µM; in the experiment on TK-10 renal, 6.58 µM; in the experiment with UACC-257 melanoma, 5.47 µM; in the experiment on UO-31 renal, 5.33 µM. The TGI in the experiment on CAKI-1 renal came to 13.5 µM; in the experiment on HCT-116 colon, 3.27 µM; with LOX IMVI melanoma, 12.6 µM; in the experiment with NCI-H23 lung, 23.4 µM; with SK-MEL-5 melanoma it was 3.79 µM; in the experiment with SNB-75 CNS, 18.2 µM. Further, the TGI in the experiment on T-47D breast is over 33.3 µM; in the experiment on TK-10 renal it was over 33.3 µM; with UACC-257 melanoma, 23.8 µM; in the experiment with UO-31 renal, 24.8 µM.

With `NS(=O)(=O)c1cccc(-c2cc3ccncc3cc2OCc2ccccc2)c1`, the GI50 in the experiment with CAKI-1 renal is 10.6 µM; in the experiment with HCT-116 colon it was 10.1 µM; with LOX IMVI melanoma it was 12.4 µM; in the experiment with NCI-H23 lung, over 18.4 µM; in the experiment with SK-MEL-5 melanoma it was 4.83 µM; in the experiment on SNB-75 CNS it was 3.23 µM. For the same molecule, the GI50 in the experiment on T-47D breast is 12.7 µM; in the experiment with TK-10 renal, 9.77 µM; with UACC-257 melanoma it was 7.76 µM; in the experiment on UO-31 renal it was 5.76 µM. Also, the TGI with CAKI-1 renal is over 25 µM; in the experiment with HCT-116 colon it was over 25 µM; in the experiment on LOX IMVI melanoma, over 25 µM; with NCI-H23 lung, over 25 µM; with SK-MEL-5 melanoma it was over 15.8 µM; in the experiment on SNB-75 CNS, over 25 µM. Moreover, the TGI in the experiment with T-47D breast was over 25 µM; in the experiment with TK-10 renal, over 25 µM; in the experiment on UACC-257 melanoma, over 25 µM; in the experiment with UO-31 renal, over 21.4 µM.

As for `Nc1ncnc2c1nc(N)n2C1OC(CO)C(O)C1O` (stereo unspecified), the GI50 with CAKI-1 renal was 0.318 µM; in the experiment with HCT-116 colon, 0.302 µM; in the experiment with LOX IMVI melanoma, 0.212 µM; with NCI-H23 lung it was 0.309 µM; in the experiment with SK-MEL-5 melanoma, 1.25 µM; with SNB-75 CNS it was 1.88 µM. The GI50 was 0.449 µM in the experiment on T-47D breast, 0.458 µM with TK-10 renal, 0.229 µM with UACC-257 melanoma and 0.295 µM with UO-31 renal. Also, the TGI in the experiment with CAKI-1 renal came out at 1.59 µM; in the experiment on HCT-116 colon, 10.5 µM; in the experiment on LOX IMVI melanoma, 1.17 µM; in the experiment on NCI-H23 lung, 2.23 µM; with SK-MEL-5 melanoma it was 2.61 µM; in the experiment on SNB-75 CNS, 3.7 µM. For the same molecule, the TGI with T-47D breast amounted to 2.68 µM; with UACC-257 melanoma it was 0.857 µM; in the experiment with UO-31 renal, 2.82 µM.

For the molecule `CC[C@@]1(O)C(=O)OCc2c1cc1n(c2=O)Cc2cc3c(Cl)c4c(cc3nc2-1)OCO4`, the GI50 is under 0.001 µM with CAKI-1 renal; 1.1 µM with HCT-116 colon; under 0.001 µM in the experiment with LOX IMVI melanoma; under 0.001 µM in the experiment with NCI-H23 lung; under 0.001 µM in the experiment with SK-MEL-5 melanoma; 0.00288 µM in the experiment on SNB-75 CNS. Further, the GI50 in the experiment with T-47D breast was under 0.001 µM; in the experiment with UACC-257 melanoma, 0.156 µM and 0.312 µM; in the experiment with UO-31 renal it was under 0.001 µM. Also, the TGI with CAKI-1 renal is over 100 µM; with HCT-116 colon, over 100 µM; in the experiment with LOX IMVI melanoma, 0.218 µM and 0.321 µM; in the experiment on SK-MEL-5 melanoma it was 0.0323 µM and 0.159 µM; in the experiment on SNB-75 CNS, over 100 µM; with T-47D breast, over 100 µM. The TGI is 10.6 µM in the experiment on TK-10 renal; 3.64 µM and 1.92 µM in the experiment with UACC-257 melanoma.
